Source: patent publication US20060035942A1, “Fungicidal combinations of active substances” (priority 2002, published 2006)

Test system: Pyrenophora teres
Assay: Pyrenophora teres test (barley)/curative
Format: in vivo
Conditions: curative, application rate 100 g/ha, evaluation 7 days after inoculation
Description: Pyrenophora teres Test (Barley)/Curative • Solvent: 25 parts by weight of N,N-dimethylacetamide • Emulsifier: 0.6 part by weight of alkylaryl polyglycol ether To produce a suitable preparation of active compound, 1 part by weight of active compound is mixed with the stated amounts of solvent and emulsifier, and the concentrate is diluted with water to the desired concentration. To test for curative activity, young plants are sprayed with a conidia suspension of Pyrenophora teres. The plants remain in an incubation cabin at 20° C. and 100% relative atmospheric humidity for 48 hours. The plants are then sprayed with the preparation of active compound at the stated application rate. The plants are placed in a greenhouse at a temperature of about 20° C. and a relative atmospheric humidity of about 80%. Evaluation is carried out 7 days after the inoculation. 0% means an efficacy which corresponds to that of the control, whereas an efficacy of 100% means that no infection is observed.

Q: How did the Efficacy in % turn out when CC(C)(C)C(O)(CCc1ccc(Cl)cc1)Cn1cncn1 (stereo not drawn) [Ex. (III)] was run?
A: The Efficacy in % was 22%.

Q: With CON=C(C(=O)OC)c1ccccc1CO/N=C(\C)c1cccc(C(F)(F)F)c1 [Ex. (I)] as the molecule, how does the Efficacy in % read?
A: Its Efficacy in % is 67%.

Q: With OC(Cc1ccccc1Cl)(Cn1nc[nH]c1=S)C1(Cl)CC1 (stereo not drawn) [Ex. (II)] as the molecule, how does the Efficacy in % read?
A: The Efficacy in % was 56%.
